# Earlier results in publication PMC6311893, “Computational prediction of plasma protein binding of cyclic peptides from small molecule experimental data using sparse modeling techniques” (BMC Bioinformatics, 2018).
# Like-named read-outs stand apart in the source and are kept apart here.
# System: plasma protein
# Conditions: cited from earlier work
# [1] = fraction bound to plasma protein, small molecule dataset, sheet 1-SM, ref Ingle et al.
# [2] = fraction bound to plasma protein, small molecule dataset, sheet 1-SM, Set Dtr, ref Ingle et al.
# [3] = fraction bound to plasma protein, small molecule dataset, sheet 1-SM (Set Dte = test, Dtr = training), ref Ingle et al.
molecule,measurement,setting,value
CC(=O)O[C@H]1C[C@H](O[C@H]2[C@@H](O)C[C@H](O[C@H]3[C@@H](O)C[C@H](O[C@H]4CC[C@@]5(C)[C@H](CC[C@@H]6[C@@H]5C[C@@H](O)[C@]5(C)[C@@H](C7=CC(=O)OC7)CC[C@]65O)C4)O[C@@H]3C)O[C@@H]2C)O[C@H](C)[C@H]1O [alpha-acetyldigoxin],PPB (fb),plasma,0.25
CC(C)(C)NCC(O)c1cc(Cl)c(N)c(Cl)c1 (centres unmarked) [clenbuterol],PPB (fb),plasma,0.5
CC(=O)Oc1cc(C(C)C)c(OCCN(C)C)cc1C [Moxisylyte],PPB (fb),[1],0.26
Cc1cccc(Nc2ccccc2C(=O)O)c1C [mefenamic acid],PPB (fb),[1],0.99
C[C@H](N[C@@H](CCc1ccccc1)C(=O)O)C(=O)N1[C@H](C(=O)O)C[C@H]2CCCC[C@@H]21 [trandolaprilat],PPB (fb),[2],0.94
CCOC(=O)[C@H](CCc1ccccc1)N[C@@H](C)C(=O)N1C(=O)N(C)C[C@H]1C(=O)O [imidapril],PPB (fb),[1],0.2
CCCCC1C(=O)N(c2ccccc2)N(c2ccccc2)C1=O [phenylbutazone],PPB (fb),[1],0.98
NS(=O)(=O)c1cc(C2(O)NC(=O)c3ccccc32)ccc1Cl (centres unmarked) [Chlorthalidone],PPB (fb),[2],0.75
CCn1cc(C(=O)O)c(=O)c2cnc(N3CCNCC3)nc21 [pipemidic acid],PPB (fb),[1],0.3
C=CC[N@@+]12CC[C@@]34c5ccccc5N5/C=C6/[C@H]7C[C@H]8[C@@]9(CC[N@@+]8(CC=C)C/C7=C/CO)c7ccccc7N(/C=C(/[C@@H](C[C@@H]31)/C(=C\CO)C2)[C@H]54)[C@@H]69 [alcuronium],PPB (fb),plasma,0.4
Cc1cc(CC(=O)O)n(C)c1C(=O)c1ccc(Cl)cc1 [zomepirac],PPB (fb),[3],0.98
CCCC(C)C1(CC)C(=O)NC(=S)NC1=O (centres unmarked) [Thiopental],PPB (fb),plasma,0.84
CCN(CC)C(=O)N1CCN(C)CC1 [diethylcarbamazine],PPB (fb),[3],0
CC(=O)Nc1c(I)c(C(=O)O)c(I)c(N(C)C(C)=O)c1I [Metrizoate],PPB (fb),[2],0
Fc1ccc([C@@H]2CCNC[C@H]2COc2ccc3c(c2)OCO3)cc1 [Paroxetine],PPB (fb),[2],0.94
NC(=O)N1c2ccccc2C=Cc2ccccc21 [carbamazepine],PPB (fb),[3],0.75
CC(=O)OCC(CCn1cnc2cnc(N)nc21)COC(C)=O [famciclovir],PPB (fb),[1],0.15
C#CCN(C)[C@H](C)Cc1ccccc1 [Selegiline],PPB (fb),plasma,0.9
salvianolic acid B,PPB (fb),plasma,0.75
CC(C)OC(=O)C(C)(C)Oc1ccc(C(=O)c2ccc(Cl)cc2)cc1 [fenofibrate],PPB (fb),[1],0.99
CCn1nc(C(=O)O)c(=O)c2cc3c(cc21)OCO3 [cinoxacin],PPB (fb),[3],0.64
Cn1nnnc1SCC1=C(C(=O)O)N2C(=O)[C@@H](NC(=O)[C@H](O)c3ccccc3)[C@H]2SC1 [Cefamandole],PPB (fb),[2],0.74
CC1CCN(CCCC(=O)c2ccc(F)cc2)CC1 [melperone],PPB (fb),[1],0.5
COc1cc(C)c(/C=C/C(C)=C/C=C/C(C)=C/C(=O)O)c(C)c1C [acitretin],PPB (fb),,0.99
Doxycycline,PPB (fb),plasma,0.89
CCOC(=O)n1ccn(C)c1=S [carbimazole],PPB (fb),[3],0.07
Cc1ncc(CO)c(CO)c1O [pyridoxine],PPB (fb),[1],0
CO [methanol],PPB (fb),plasma,0
C[C@]12COC(=O)C[C@@H]1CC[C@@H]1[C@@H]2CC[C@@]2(C)[C@H]1CC[C@]2(C)O [oxandrolone],PPB (fb),plasma,0.95
Cc1c(C)c2c(c(C)c1O)CCC(C)(COc1ccc(CC3SC(=O)NC3=O)cc1)O2 (centres unmarked) [troglitazone],PPB (fb),[2],0.99
N=C(N)N1CCc2ccccc2C1 [debrisoquine],PPB (fb),[3],0.85
COc1cc(NC(C)CCCN)c2ncccc2c1 (centres unmarked) [primaquine],PPB (fb),[1],0.8
C[C@@H](O[C@H]1OCCN(Cc2n[nH]c(=O)[nH]2)[C@H]1c1ccc(F)cc1)c1cc(C(F)(F)F)cc(C(F)(F)F)c1 [Aprepitant],PPB (fb),[2],0.95
C[C@@H]1[C@H](O)[C@@H](C)/C=C/C=C/C=C/C=C/C=C/C=C/C=C/[C@H](O[C@@H]2O[C@H](C)[C@@H](O)[C@H](N)[C@@H]2O)C[C@@H]2O[C@](O)(C[C@@H](O)C[C@@H](O)[C@H](O)CC[C@@H](O)C[C@@H](O)CC(=O)O[C@H]1C)C[C@H](O)[C@H]2C(=O)O [amphotericin-B],PPB (fb),[3],0.94
COc1ccc(CCN(C)CCCC(C#N)(c2cc(OC)c(OC)c(OC)c2)C(C)C)cc1OC (centres unmarked) [gallopamil],PPB (fb),[1],0.9
C[C@@H]1CN([C@H]2CC[C@](C#N)(c3ccc(F)cc3)CC2)CC[C@]1(C(=O)O)c1ccccc1 [levocabastine],PPB (fb),[3],0.55
C=CCC1(C(C)CCC)C(=O)NC(=O)NC1=O (centres unmarked) [quinalbarbitone],PPB (fb),plasma,0.5
COC(=O)C(c1ccccc1)C1CCCCN1 (centres unmarked) [Methylphenidate],PPB (fb),plasma,0.18
S=P(N1CC1)(N1CC1)N1CC1 [Thiotepa],PPB (fb),[1],0.1
CCN(CC)C(=O)[C@@H]1C=C2c3cccc4[nH]cc(c34)C[C@H]2N(C)C1 [lysergide],PPB (fb),plasma,0.9
C#C[C@]1(O)CC[C@H]2[C@@H]3CCc4cc(OS(=O)(=O)O)ccc4[C@H]3CC[C@@]21C [Ethinylestradiol-3-Sulfate],PPB (fb),plasma,0.99
Oxytetracycline,PPB (fb),plasma,0.2
COC1C(C)OC(OC2C=C3CCC4C(CCC5(C)C(c6ccc(=O)oc6)CCC45O)C3(C)CC2)C(O)C1O (centres unmarked) [meproscillarin],PPB (fb),plasma,0.96
CN1CCc2cccc3c2[C@H]1Cc1ccc(O)c(O)c1-3 [Apomorphine],PPB (fb),[2],0.94
C[C@]12C=CC(=O)C=C1CC[C@@H]1[C@@H]2[C@@H](O)C[C@@]2(C)[C@H]1CC[C@]2(O)C(=O)CO [Prednisolone],PPB (fb),[2],0.81
Nc1c(Br)cc(Br)cc1CN[C@H]1CC[C@H](O)CC1 [ambroxol],PPB (fb),[3],0.9
COc1ccccc1Oc1c(NS(=O)(=O)c2ccc(C(C)(C)C)cc2)nc(-c2ncccn2)nc1OCCO [Bosentan],PPB (fb),[2],0.97
CCn1cc(C(=O)O)c(=O)c2cc(F)c(N3CCNCC3)cc21 [norfloxacin],PPB (fb),[1],0.15
C#C[C@]1(O)CC[C@H]2[C@@H]3CCC4=CCCC[C@@H]4[C@H]3C(=C)C[C@@]21CC [desogestrel],PPB (fb),[3],0.98
C/N=C(\NC)NCc1ccccc1 [bethanidine],PPB (fb),[3],0.1
Cc1onc(-c2ccccc2)c1-c1ccc(S(N)(=O)=O)cc1 [valdecoxib],PPB (fb),[2],0.98
CCN(CC)C(=O)Nc1ccc(OCC(O)CNC(C)(C)C)c(C(C)=O)c1 (centres unmarked) [celiprolol],PPB (fb),[3],0.25
Sc1ncnc2nc[nH]c12 [Mercaptopurine],PPB (fb),[3],0.17
COc1ccccc1Oc1c(NS(=O)(=O)c2ccc(C(C)C)cn2)nc(-c2ccnc(-c3nnn[nH]3)c2)nc1OCCO [Tezosentan],PPB (fb),[1],0.99
CNS(=O)(=O)Cc1ccc2[nH]cc(CCN(C)C)c2c1 [Sumatriptan],PPB (fb),[1],0.17
CC(Oc1ccccc1Cl)C(=O)NC1C(=O)N2C1SC(C)(C)C2C(=O)O (centres unmarked) [penicillin55],PPB (fb),[1],0.96
CC1=NS(=O)(=O)c2cc(Cl)ccc2N1 [Diazoxide],PPB (fb),[2],0.92
Cc1nnc(NS(=O)(=O)c2ccc(N)cc2)s1 [sulfamethizole],PPB (fb),[1],0.9
COc1ccccc1-n1cc(C(=O)O)c(=O)c2cc(F)c(N3CCNCC3)cc21 [5a(o-OCH3)],PPB (fb),[3],0.29
CC(Oc1ccc(Cl)c(Cl)c1)C(=O)NC1C(=O)N2C1SC(C)(C)C2C(=O)O (centres unmarked) [penicillin58],PPB (fb),[1],0.97
COc1ccc([C@]2(C#N)CC[C@@H](C(=O)O)CC2)cc1OC1CCCC1 [Cilomilast],PPB (fb),[2],0.99
CCCCCCC(N)C(=O)NC1C(=O)N2C1SC(C)(C)C2C(=O)O (centres unmarked) [penicillin13],PPB (fb),[3],0.66
CC(CCc1ccccc1)NCC(O)c1ccc(O)c(C(N)=O)c1 (centres unmarked) [Labetalol],PPB (fb),[2],0.5
CNCCCN1c2ccccc2CCc2ccccc21 [Desipramine],PPB (fb),[2],0.85
CCc1cc(C(N)=S)ccn1 [ethionamide],PPB (fb),[1],0.3
CC(C(=O)O)c1ccc(N2Cc3ccccc3C2=O)cc1 (centres unmarked) [indoprofen],PPB (fb),[1],0.99
CC(Oc1cccc(F)c1)C(=O)NC1C(=O)N2C1SC(C)(C)C2C(=O)O (centres unmarked) [penicillin61],PPB (fb),[1],0.84
CCCc1nc(C(C)(C)O)c(C(=O)O)n1Cc1ccc(-c2ccccc2-c2nnn[nH]2)cc1 [Olmesartan],PPB (fb),[1],0.99
CO[C@H]1/C=C/O[C@@]2(C)Oc3c(C)c(O)c4c(O)c(c(/C=N/N5CCN(C6CCCC6)CC5)c(O)c4c3C2=O)NC(=O)/C(C)=C\C=C\[C@H](C)[C@H](O)[C@@H](C)[C@@H](O)[C@@H](C)[C@H](OC(C)=O)[C@@H]1C [Rifapentine],PPB (fb),[1],0.93
CCCC(C)(COC(N)=O)COC(=O)NC(C)C (centres unmarked) [carisoprodol],PPB (fb),plasma,0.58
COc1cc(NCc2ccc3nc(N)nc(N)c3c2C)cc(OC)c1OC [Trimetrexate],PPB (fb),[1],0.96
CNCC[C@H](Oc1cccc2ccccc12)c1cccs1 [Duloxetine],PPB (fb),[1],0.9
C[C@]12CCC(=O)C=C1CC[C@@H]1[C@@H]2[C@@H](O)C[C@@]2(C)[C@H]1CC[C@]2(O)C(=O)CO [Hydrocortisone],PPB (fb),[2],0.8
O=C1c2cccc3c2[C@H](CCC3)CN1[C@@H]1CN2CCC1CC2 [Palonosetron],PPB (fb),[2],0.62
